Tested on: EMC virus, strain VR 125
Assay: HPA 23 and murine interferon in EMC infected mice
Format: in vivo
Details: no HPA 23
Description: Synergism occurs between HPA 23 and murine interferon to combat viral infections in mice.
*Number of survival mice on inoculated mice
**range of death for dead mice

[1] = Interferon 1:3 25.000 I.U./mouse i.p.
[2] = Interferon 1:9 8.000 I.U./mouse i.p.
[3] = Interferon undiluted 75.000 I.U./mouse i.p.
[4] = Interferon undiluted 75.000 I.U./mouse i.v.

Substance: Interferon
- Number of survival mice on inoculated mice [1]: 3/10
- range of death for dead mice [1]: 5.5 ± 3.0 days
- Number of survival mice on inoculated mice [2]: 1/10
- range of death for dead mice [2]: 4.4 ± 2.1 days
- Number of survival mice on inoculated mice [3]: 5/10
- range of death for dead mice [3]: 7.1 ± 3.1 days
- Number of survival mice on inoculated mice [4]: 6/10
- range of death for dead mice [4]: 7.7 ± 2.9 days

Reference: patent US4547369A, “Antiviral agent” (Cabinet Harle & Phelip, priority 1973, dated 1985)
